According to patent US20110306600A1, “NOVEL THERAPEUTIC COMPOUNDS” (Grunenthal GmbH, priority 2010, published 2011):

Test: Thermal tail-flick test on rats
Format: in vivo, rat
Conditions: 3 mg/kg injection in saline, against placebo, TFL measured approximately every hour
Protocol: Therapeutic Solutions: The compound 2 90 mg was dissolved in 30 ml of saline solution and the injection volume was calculated as 1 ml/kg to achieve 3 mg/kg of compound of Formula 31. The placebo solution was identical except it is devoid of any drug.
Tail-Flick Test: The experimentation was started by selecting ten at least 90-100 days old and were all weighed to determine the volume of experimental and placebo solution. Each rat, was habituated for three days to handling and the tail flick procedure and without heat exposure. In the administration, each animal was only used for one day of experiments, and given only one dose of drug, or placebo solution. The technique of D'Amour and Smith (1941) relies on latency to flick of the tail from onset of a focused beam of intense light. This method, employed for decades, has now been augmented by the ability to monitor temperature at the site of exposure. Columbus Instruments model TF-2 model was warmed, on the day of the experiment, for at least 30 minutes. The intensity of the lamp was adjusted so that baseline tail-flick latency for rats is equal to approximately 2.0 seconds. The intensity was set to 40% as this was determined to be the ideal intensity from the intensity response curve. […] The baseline value was determined for each animal prior to injection. The TFL was measured approximately every hour. The semilog means were calculated.

CC12CC3CC(C)(C1)CC(NC(=O)C1(CN)CCCCC1)(C3)C2 [Formula 2]
time course of antinociceptive effect in the thermal tail flick test (FIG. 1): antinociceptive effect
